From the NIST ThermoML archive (doi:10.1021/acs.jced.8b00236)
Numbers after ± are expanded uncertainties.

Test: mn = molality of the nth substance listed, in mol/kg
Conditions: 75 kPa, Liquid; for viscosity: Capillary tube (Ostwald / Ubbelohde) method; for speed of sound: Frequency=3 MHz, Single path-length method; for mass density: Vibrating tube method

NCCCCCC(=O)O [6-aminohexanoic acid] + O
Conditions	mass density [kg/m3]	speed of sound [m/s]	viscosity [mPa·s]
288.15 K, m1 = 0.1386	1002.94 ± 0.3	1484.1 ± 4	1.237 ± 0.026
288.15 K, m1 = 0.2786	1006.69 ± 0.3	1501.7 ± 4	1.324 ± 0.028
288.15 K, m1 = 0.4193	1010.34 ± 0.3	1518.8 ± 4	1.43 ± 0.03
288.15 K, m1 = 0.5602	1013.86 ± 0.3	1535.5 ± 4	1.543 ± 0.032
288.15 K, m1 = 0.7027	1017.3 ± 0.3	1551.7 ± 4	1.676 ± 0.035
288.15 K, m1 = 0.8448	1020.62 ± 0.3	1566.7 ± 4	1.804 ± 0.037
288.15 K, m1 = 0.9881	1023.86 ± 0.3	1581.4 ± 4	1.945 ± 0.04
288.15 K, m1 = 1.132	1026.99 ± 0.3	1595.3 ± 4	2.103 ± 0.044
293.15 K, m1 = 0.1386	1001.94 ± 0.3	1499.7 ± 4	1.088 ± 0.023
293.15 K, m1 = 0.2786	1005.61 ± 0.3	1516.3 ± 4	1.158 ± 0.024
293.15 K, m1 = 0.4193	1009.17 ± 0.3	1532.6 ± 4	1.25 ± 0.026
293.15 K, m1 = 0.5602	1012.62 ± 0.3	1548.3 ± 4	1.344 ± 0.028
293.15 K, m1 = 0.7027	1016.01 ± 0.3	1563.8 ± 4	1.459 ± 0.03
293.15 K, m1 = 0.8448	1019.28 ± 0.3	1578.3 ± 4	1.566 ± 0.032
293.15 K, m1 = 0.9881	1022.48 ± 0.3	1592.5 ± 4	1.689 ± 0.035
293.15 K, m1 = 1.132	1025.6 ± 0.3	1606 ± 4	1.825 ± 0.038
298.15 K, m1 = 0.1386	1000.74 ± 0.3	1513 ± 4	0.962 ± 0.02
298.15 K, m1 = 0.2786	1004.36 ± 0.3	1529 ± 4	1.025 ± 0.021
298.15 K, m1 = 0.4193	1007.89 ± 0.3	1544.6 ± 4	1.103 ± 0.023
298.15 K, m1 = 0.5602	1011.3 ± 0.3	1559.8 ± 4	1.183 ± 0.025
298.15 K, m1 = 0.7027	1014.65 ± 0.3	1574.6 ± 4	1.277 ± 0.027
298.15 K, m1 = 0.8448	1017.88 ± 0.3	1588.6 ± 4	1.377 ± 0.029
298.15 K, m1 = 0.9881	1021.04 ± 0.3	1602.2 ± 4	1.481 ± 0.031
298.15 K, m1 = 1.132	1024.11 ± 0.3	1615.3 ± 4	1.59 ± 0.033
303.15 K, m1 = 0.1386	999.323 ± 0.3	1524.5 ± 4	0.865 ± 0.018
303.15 K, m1 = 0.2786	1002.91 ± 0.3	1539.8 ± 4	0.916 ± 0.019
303.15 K, m1 = 0.4193	1006.4 ± 0.3	1554.7 ± 4	0.984 ± 0.02
303.15 K, m1 = 0.5602	1009.78 ± 0.3	1569.1 ± 4	1.062 ± 0.022
303.15 K, m1 = 0.7027	1013.08 ± 0.3	1583.2 ± 4	1.137 ± 0.024
303.15 K, m1 = 0.8448	1016.26 ± 0.3	1596.8 ± 4	1.222 ± 0.025
303.15 K, m1 = 0.9881	1019.37 ± 0.3	1610 ± 4	1.314 ± 0.027
303.15 K, m1 = 1.132	1022.39 ± 0.3	1622.5 ± 4	1.423 ± 0.03
308.15 K, m1 = 0.1386	997.675 ± 0.3	1534.6 ± 4	0.781 ± 0.016
308.15 K, m1 = 0.2786	1001.24 ± 0.3	1549.2 ± 4	0.821 ± 0.017
308.15 K, m1 = 0.4193	1004.7 ± 0.3	1563.5 ± 4	0.881 ± 0.018
308.15 K, m1 = 0.5602	1008.06 ± 0.3	1577.4 ± 4	0.949 ± 0.02
308.15 K, m1 = 0.7027	1011.35 ± 0.3	1591 ± 4	1.02 ± 0.021
308.15 K, m1 = 0.8448	1014.52 ± 0.3	1603.9 ± 4	1.096 ± 0.023
308.15 K, m1 = 0.9881	1017.62 ± 0.3	1616.4 ± 4	1.177 ± 0.024
308.15 K, m1 = 1.132	1020.64 ± 0.3	1628.4 ± 4	1.267 ± 0.026
